ChEMBL document CHEMBL1201862, “PubChem BioAssay data set” (2004)
The source made the active and inactive calls.

What was measured:
[1] = target: T1, Methionyl-tRNA synthetase, putative (Trypanosoma brucei brucei, UniProt Q38C91); assay type: functional, Trypanosoma brucei brucei strain 927/4 GUTat10.1
T1 sequence (Q38C91 whole entry): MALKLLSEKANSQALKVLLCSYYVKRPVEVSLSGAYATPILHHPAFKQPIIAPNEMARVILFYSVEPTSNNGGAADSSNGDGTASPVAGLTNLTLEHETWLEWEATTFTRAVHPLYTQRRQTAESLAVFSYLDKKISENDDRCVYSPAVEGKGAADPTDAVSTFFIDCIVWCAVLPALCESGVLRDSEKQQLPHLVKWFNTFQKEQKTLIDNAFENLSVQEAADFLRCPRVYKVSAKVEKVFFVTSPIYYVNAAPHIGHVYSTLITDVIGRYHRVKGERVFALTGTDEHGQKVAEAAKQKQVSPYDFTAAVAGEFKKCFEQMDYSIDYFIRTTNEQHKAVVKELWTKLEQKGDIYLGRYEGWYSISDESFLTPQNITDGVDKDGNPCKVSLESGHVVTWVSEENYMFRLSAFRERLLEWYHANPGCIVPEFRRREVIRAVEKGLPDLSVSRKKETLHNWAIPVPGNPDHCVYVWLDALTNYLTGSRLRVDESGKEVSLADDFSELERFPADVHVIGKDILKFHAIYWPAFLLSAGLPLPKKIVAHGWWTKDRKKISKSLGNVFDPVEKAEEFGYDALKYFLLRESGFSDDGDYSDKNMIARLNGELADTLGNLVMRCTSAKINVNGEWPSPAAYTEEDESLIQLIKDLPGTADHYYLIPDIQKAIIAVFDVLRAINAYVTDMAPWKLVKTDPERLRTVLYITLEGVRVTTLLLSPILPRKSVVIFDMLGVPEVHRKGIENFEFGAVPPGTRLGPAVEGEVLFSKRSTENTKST

[2] = Counterscreen for inhibitors of Trypanosoma brucei methionyl tRNA synthetase (MetRS): Luminescence-based cell-based high throughput dose response assay to identify compounds that are cytotoxic to Jurkat human T lymphocyte cells.; assay type: functional
[3] = target: T1, Methionyl-tRNA synthetase, putative; assay type: functional, Trypanosoma brucei brucei strain 927/4 GUTat10.1; remark: listed apart in the source
[4] = Late stage counterscreen for inhibitors of Trypanosoma brucei methionyl tRNA synthetase (MetRS): Luminescence-based cell-based high throughput dose response assay to identify compounds that are cytotoxic to Jurkat human T lymphocyte cells.; assay type: functional
[5] = viability inhibitors of stage V gametocytes – luminescence, dose response (AID 1117278); assay type: functional, cell-based;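 further: gametocytes exposed to compound for 24 hours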
[6] = viability loss in human Jurkat cells – cell-based, luminescence, cytotoxicity control for P. falciparum gametocyte viability project, dose response (AID 1117277); assay type: functional;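 further: potency reflects loss of cellular ATP meaning fewer viable cells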
[7] = reduced cellular PGC1a acetyl-lysine signal – cell-based, cherry-picked samples, dose response (AID 720514); assay type: functional;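 further: potency may reflect raised or lowered acetylation signal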
[8] = target: 1-phosphatidylinositol 4,5-bisphosphate phosphodiesterase gamma-1 (Homo sapiens, UniProt P19174); assay: Counterscreen for inhibitors of phospholipase C isozymes (PLC-B3): Fluorescence-based biochemical high throughput dose response assay to identify inhibitors of phospholipase C isozymes (PLC-gamma1).
[9] = target: 1-phosphatidylinositol 4,5-bisphosphate phosphodiesterase beta-3 (Homo sapiens, UniProt Q01970); assay: Fluorescence-based biochemical high throughput dose response assay to identify inhibitors of phospholipase C isozymes (PLC-B3).
[10] = target: fMet-Leu-Phe receptor (Homo sapiens, UniProt P21462); assay: formyl peptide receptor binders – dose response (AID 519); assay type: functional
[11] = target: Bifunctional protein GlmU (Mycobacterium tuberculosis, UniProt P9WMN3); assay: Inhibitors of Mycobacterial Glucosamine-1-phosphate acetyl transferase (GlmU). Secondary screen.; parameters: species or system Mycobacterium tuberculosis H37Rv
[12] = target: T2, Carboxy-terminal domain RNA polymerase II polypeptide A small phosphatase 1 (Homo sapiens, UniProt Q9GZU7); assay: CTDSP1 inhibitors, concentration-response, biochemical, absorbance readout, ultra-high-throughput screen actives (AID 540297); assay type: functional
T2 sequence (Q9GZU7 whole entry): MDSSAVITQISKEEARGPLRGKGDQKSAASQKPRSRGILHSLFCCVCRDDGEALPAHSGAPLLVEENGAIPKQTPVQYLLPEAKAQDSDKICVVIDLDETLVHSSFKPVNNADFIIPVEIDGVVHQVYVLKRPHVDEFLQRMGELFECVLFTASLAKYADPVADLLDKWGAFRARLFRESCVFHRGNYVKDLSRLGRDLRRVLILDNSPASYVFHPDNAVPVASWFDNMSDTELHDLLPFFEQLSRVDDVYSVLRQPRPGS

[13] = growth inhibition of yeast DHODH-expressing 3D7 parasites – SYBR Green, dry powder samples, dose response (AID 1159570); assay type: functional, cell-based;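 further: parasite growth measured after 72 hours of compound exposure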
[14] = toxicity to human HepG2 hepatoma cells – cell-based, plate reader, dry powder samples, cytotoxicity control, dose response (AID 1159569); assay type: functional;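 further: inhibitor potency with signal falling toward the positive control level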
[15] = P. falciparum Dd2 growth inhibitors, dose response, SYBR Green, cherry-picked samples (AID 1159567); assay type: functional, cell-based
[16] = Dd2 malaria parasite growth inhibition potency – SYBR Green, dry powder samples, dose response (AID 1159566); assay type: functional, cell-based;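 further: potency for growth inhibition with lower SYBR green DNA signal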
[17] = growth inhibition of PfATP4-mutant resistant parasites – NITD609-resistant line, SYBR Green, dry powder, dose response (AID 1159571); assay type: functional, cell-based;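 further: parasites synchronized at ring stage by sorbitol before testing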
[18] = rise of 2N DNA cells, HeLa – IC50, dose response (AID 1117349); assay type: functional, cell-based
[19] = CellTiter-Glo luminescence survival assay, SW480 colon tumor line, concentration-response curve, half-maximal inhibitory concentration (AID 1117338); assay type: functional
[20] = RKO cell viability reduction, dose response, CellTiter-Glo luminescence (AID 1117322); assay type: functional
[21] = cytotoxicity toward HCT116 cells – cell-based, CellTiter-Glo luminescence, IC50, dose response (AID 1117332); assay type: functional; details: HCT-116
[22] = SNU-C1 cell viability reduction, dose response, CellTiter-Glo luminescence (AID 1117323); assay type: functional, cell-based
[23] = cytotoxicity toward Colo320 cells – cell-based, CellTiter-Glo luminescence, IC50, dose response (AID 1117334); assay type: functional; details: COLO 320
[24] = rise of 4N DNA cells, HeLa – IC50, dose response (AID 1117351); assay type: functional, cell-based
[25] = cytotoxicity toward HT-29 cells – cell-based, CellTiter-Glo luminescence, IC50, dose response (AID 1117330); assay type: functional
[26] = Reduced DLD-1 viability, concentration-response, CellTiter-Glo luminescence (AID 1117352); assay type: functional
[27] = HCT116 cell viability decrease, GSK3B pretreatment – CellTiter-Glo, IC50, dose response (AID 1117339); assay type: functional; details: HCT-116

Sequence of 1-phosphatidylinositol 4,5-bisphosphate phosphodiesterase beta-3 (Q01970 whole entry): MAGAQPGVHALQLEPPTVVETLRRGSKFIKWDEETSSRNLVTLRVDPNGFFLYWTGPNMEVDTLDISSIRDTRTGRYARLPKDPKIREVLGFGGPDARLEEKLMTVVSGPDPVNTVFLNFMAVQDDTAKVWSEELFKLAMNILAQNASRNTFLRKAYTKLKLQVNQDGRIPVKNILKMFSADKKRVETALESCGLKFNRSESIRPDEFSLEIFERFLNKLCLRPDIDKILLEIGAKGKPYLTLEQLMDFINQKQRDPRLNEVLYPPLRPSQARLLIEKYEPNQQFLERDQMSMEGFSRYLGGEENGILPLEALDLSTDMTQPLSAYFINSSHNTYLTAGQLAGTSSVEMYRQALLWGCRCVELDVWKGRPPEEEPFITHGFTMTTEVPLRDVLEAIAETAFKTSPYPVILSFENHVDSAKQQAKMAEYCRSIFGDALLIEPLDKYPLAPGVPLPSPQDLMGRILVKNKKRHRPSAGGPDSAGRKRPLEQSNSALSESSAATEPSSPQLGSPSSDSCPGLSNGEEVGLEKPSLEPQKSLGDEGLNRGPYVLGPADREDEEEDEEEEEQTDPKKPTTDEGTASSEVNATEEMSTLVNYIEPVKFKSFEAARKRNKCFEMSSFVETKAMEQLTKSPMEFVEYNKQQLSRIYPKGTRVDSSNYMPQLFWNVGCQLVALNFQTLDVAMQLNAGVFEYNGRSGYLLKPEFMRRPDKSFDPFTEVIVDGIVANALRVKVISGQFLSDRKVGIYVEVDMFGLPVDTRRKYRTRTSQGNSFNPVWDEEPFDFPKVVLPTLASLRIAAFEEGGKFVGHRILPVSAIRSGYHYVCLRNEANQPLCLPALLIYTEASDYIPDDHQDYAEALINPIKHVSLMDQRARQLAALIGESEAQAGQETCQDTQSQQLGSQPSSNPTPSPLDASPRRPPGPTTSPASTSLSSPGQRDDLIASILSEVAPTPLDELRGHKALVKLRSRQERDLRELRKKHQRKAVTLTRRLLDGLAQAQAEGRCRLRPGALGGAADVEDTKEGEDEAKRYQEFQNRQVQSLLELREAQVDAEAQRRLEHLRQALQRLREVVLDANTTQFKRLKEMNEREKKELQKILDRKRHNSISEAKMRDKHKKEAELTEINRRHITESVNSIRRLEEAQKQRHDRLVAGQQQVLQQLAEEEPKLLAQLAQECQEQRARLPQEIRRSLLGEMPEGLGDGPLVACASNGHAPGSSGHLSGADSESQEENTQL
Sequence of 1-phosphatidylinositol 4,5-bisphosphate phosphodiesterase gamma-1 (P19174 whole entry): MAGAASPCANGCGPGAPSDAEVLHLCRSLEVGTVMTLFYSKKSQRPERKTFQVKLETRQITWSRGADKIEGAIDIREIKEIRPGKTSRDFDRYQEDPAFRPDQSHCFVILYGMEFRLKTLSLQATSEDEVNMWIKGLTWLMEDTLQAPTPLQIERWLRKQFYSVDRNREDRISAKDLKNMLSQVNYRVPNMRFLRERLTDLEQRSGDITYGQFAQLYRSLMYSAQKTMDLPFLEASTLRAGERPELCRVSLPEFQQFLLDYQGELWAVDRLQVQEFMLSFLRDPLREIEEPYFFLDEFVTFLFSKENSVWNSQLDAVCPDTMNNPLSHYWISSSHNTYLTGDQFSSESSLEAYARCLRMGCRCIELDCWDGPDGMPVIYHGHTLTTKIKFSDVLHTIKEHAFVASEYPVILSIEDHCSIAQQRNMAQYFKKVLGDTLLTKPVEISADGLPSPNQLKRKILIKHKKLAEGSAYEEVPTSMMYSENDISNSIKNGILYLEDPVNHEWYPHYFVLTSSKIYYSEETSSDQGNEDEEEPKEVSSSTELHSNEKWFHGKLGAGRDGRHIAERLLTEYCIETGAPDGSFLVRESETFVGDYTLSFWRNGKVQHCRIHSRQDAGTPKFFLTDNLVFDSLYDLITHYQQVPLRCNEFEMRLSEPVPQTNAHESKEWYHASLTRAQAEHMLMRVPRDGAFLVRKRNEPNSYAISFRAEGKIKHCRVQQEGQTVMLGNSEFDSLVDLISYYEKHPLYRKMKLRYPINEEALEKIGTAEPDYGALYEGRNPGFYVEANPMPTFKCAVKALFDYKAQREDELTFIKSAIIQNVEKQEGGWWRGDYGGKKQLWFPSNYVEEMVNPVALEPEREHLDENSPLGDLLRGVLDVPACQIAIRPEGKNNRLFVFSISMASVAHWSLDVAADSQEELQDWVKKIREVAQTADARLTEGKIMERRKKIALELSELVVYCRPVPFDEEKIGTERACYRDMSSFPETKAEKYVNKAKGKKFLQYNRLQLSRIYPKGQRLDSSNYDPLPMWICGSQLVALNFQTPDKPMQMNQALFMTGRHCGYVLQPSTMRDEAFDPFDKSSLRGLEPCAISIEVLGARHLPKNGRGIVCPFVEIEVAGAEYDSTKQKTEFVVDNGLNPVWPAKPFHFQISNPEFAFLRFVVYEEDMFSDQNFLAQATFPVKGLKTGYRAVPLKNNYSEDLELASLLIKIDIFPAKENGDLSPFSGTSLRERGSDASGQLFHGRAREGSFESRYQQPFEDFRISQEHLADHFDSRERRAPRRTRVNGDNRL
Sequence of Bifunctional protein GlmU (P9WMN3 whole entry, the tested form may be a part): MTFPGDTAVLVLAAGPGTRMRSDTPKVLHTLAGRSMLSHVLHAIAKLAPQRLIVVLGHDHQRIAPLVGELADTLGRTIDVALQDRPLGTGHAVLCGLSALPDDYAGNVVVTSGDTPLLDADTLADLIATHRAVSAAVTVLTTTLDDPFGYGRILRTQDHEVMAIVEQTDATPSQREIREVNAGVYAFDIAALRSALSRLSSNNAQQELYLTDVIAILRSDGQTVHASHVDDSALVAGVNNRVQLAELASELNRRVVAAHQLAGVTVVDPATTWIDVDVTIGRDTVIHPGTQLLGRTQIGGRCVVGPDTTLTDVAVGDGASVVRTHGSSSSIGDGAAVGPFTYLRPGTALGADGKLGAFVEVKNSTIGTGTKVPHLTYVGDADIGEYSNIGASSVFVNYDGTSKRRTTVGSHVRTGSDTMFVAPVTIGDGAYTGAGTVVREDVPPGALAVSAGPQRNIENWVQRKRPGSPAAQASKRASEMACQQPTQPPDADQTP
Sequence of fMet-Leu-Phe receptor (P21462 whole entry): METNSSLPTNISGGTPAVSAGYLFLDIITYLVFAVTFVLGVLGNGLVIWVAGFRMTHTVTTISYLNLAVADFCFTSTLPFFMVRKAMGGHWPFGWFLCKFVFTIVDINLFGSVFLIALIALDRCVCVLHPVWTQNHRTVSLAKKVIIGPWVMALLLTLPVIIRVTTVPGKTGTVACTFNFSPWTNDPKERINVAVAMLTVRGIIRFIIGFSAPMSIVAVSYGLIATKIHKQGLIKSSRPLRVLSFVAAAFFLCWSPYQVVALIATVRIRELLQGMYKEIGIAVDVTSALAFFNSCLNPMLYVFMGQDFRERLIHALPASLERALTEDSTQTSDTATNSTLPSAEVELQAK

## Brc1c[nH]c2nc(SCc3nc4ccccc4[nH]3)nc-2c1
[1]
  IC50: 7.89 µM (active)
[2]
  IC50: 83.3 µM (inactive)
[3]
  IC50: 4.23 µM (active)
[4]
  IC50: > 83.3 µM (inactive)

## COc1ccc(-n2c(-c3ccco3)nc3c(cnn3-c3ccccc3C)c2=O)cc1
[5]
  IC50: > 109 µM (inactive)
[6]
  IC50: > 83.3 µM (inactive)

## Cc1nc(O)c(C(=O)/C=C/c2ccccc2)c2c1CCCC2
[7]
  AC50: 8.12 µM (active)

## COC(=O)C(C(=O)OC)[C@H]1C=C[C@@H](C(=O)NS(=O)(=O)c2ccc(C)cc2)N(C(C)=O)C1
[8]
  IC50: 2.03 µM (active)
[9]
  IC50: > 122 µM (inactive)

## CC(C)(C)c1cc(C(=O)NNC(=O)Nc2ccccc2)n(Cc2ccccc2)n1
[8]
  IC50: > 122 µM (inactive)
[9]
  IC50: > 122 µM (inactive)

## Cc1ccc(C(=O)C2=C(O)C(=O)N(CCN3CCOCC3)C2c2cccnc2)cc1 (centres undefined)
[10]
  Ki: > 66.7 µM (inactive)

## CC1C=CC(C)C(C(=O)O)C1C(=O)O (centres undefined)
[11]
  IC50: 144 µM (active)
[12]
  IC50: 4.36 µM (active)

## C[C@@H]1CN([C@@H](C)CO)C(=O)c2cccc(NC(=O)c3nc4ccccc4s3)c2O[C@@H]1CN(C)C(=O)Nc1cccc2ccccc12
[13]
  AC50: 2.73 µM (active)
[14]
  AC50: 71.7 µM (active)
[15]
  AC50: 2.98 µM (active)
[16]
  AC50: 2.51 µM (active)
[17]
  AC50: 2 µM (active)

## O=C(O)c1ccc(-n2nc(-c3ccccc3O)nc2-c2ccccc2O)cc1 [DEFERASIROX]
[18]
  IC50: > 10 µM (inactive)
[19]
  IC50: 0.0776 µM (active)
[20]
  IC50: 0.1 µM (active)
[21]
  IC50: 0.438 µM (active)
[22]
  IC50: 0.233 µM (active)
[23]
  IC50: 0.409 µM (active)
[24]
  IC50: > 10 µM (inactive)
[25]
  IC50: 0.516 µM (active)
[26]
  IC50: 0.651 µM (active)
[27]
  IC50: 0.242 µM (active)
